Patent US20040259913A1, “Diamide invertebrate pest control agents” (priority 2002, published 2004)

Tested on: beet armyworm (Spodoptera exigua)
Assay: Test C: control of beet armyworm on corn (maize) plant, foliar spray
Format: in vivo
Conditions: sprayed at 50 ppm; corn (maize) plant pre-infested with 10-15 1-day-old larvae; visually rated as in Test A
Protocol: Test compounds were formulated using a solution containing 10% acetone, 90% water and 300 ppm X-77® Spreader Lo-Foam Formula non-ionic surfactant containing alkylarylpolyoxyethylene, free fatty acids, glycols and isopropanol (Loveland Industries, Inc.), unless otherwise indicated. The formulated compounds were applied in 1 mL of liquid through a SUJ2 atomizer nozzle with ⅛ JJ custom body (Spraying Systems Co,) positioned 1.27 cm (0.5 inches) above the top of each test unit. All experimental compounds in this screen were sprayed at 250 ppm and replicated three times. After spraying of the formulated test compound, each test unit was allowed to dry for 1 hour and then a black, screened cap was placed on top. The test units were held for 6 days in a growth chamber at 25° C. and 70% relative humidity. Plant feeding damage was then visually assessed. For evaluating control of beet armyworm (Spodoptera exigua) the test unit consisted of a small open container with a 4-5-day-old corn (maize) plant inside. This was pre-infested with 10-15 1-day-old larvae on a piece of insect diet by use of a core sampler as described for Test A. Test compounds were formulated and sprayed at 50 ppm as described for Test A. The applications were replicated three times. After spraying, the test units were maintained in a growth chamber and then visually rated as described for Test A.

With `CC1=C(NC(=O)c2cc(C(F)(F)F)nn2-c2ncccc2Cl)C(C(=O)NC(C)C)CS1` (stereo not shown) [Compound 1, 1-(3-Chloro-2-pyridinyl)-N-[4,5-dihydro-2-methyl-4-[[(1-methylethyl)amino]carbonyl]-3-thienyl]-3-(trifluoromethyl)-1H-pyrazole-5-carboxamide] as the molecule, how does the “feeding damage (very good levels of plant protection)” value read?
The value was ≤ 20%.
